Test results taken from US20240239806A1, “COMPOUNDS, COMPOSITIONS AND METHODS OF TREATING DISORDERS” (Chengdu Anticancer Bioscience, Ltd., priority 2021, published 2024).
Read-outs that look alike come from different tables or passages of the source.

System: RPEMYC^H2B-GFP cells
Assay: Phenotypic screening assay (mitotic arrest, polyploidy)
Format: cell-based
Details: 1 nM to 30 μM; for IC50: read-out: Proliferative arrest (>50%)
Method: We have previously developed a mechanism-informed phenotypic screening assay to identify novel antimitotic agents. Equipped with a prior understanding of the versatile functions of the chromosomal passenger protein (CPP) complex in orchestrating karyokinesis and cytokinesis, the screening assay is to score for phenotypes typically seen when the CPP complex is disabled. Specifically, the parameters for a positive hit are a temporary elevation of mitotic index (MI) at 24 hours of drug treatment and an accumulation of polyploid cells at 48 hours of drug treatment, indicative of mitotic arrest and cytokinetic failure respectively. These parameters exclude compounds that elicit only a prolonged arrest of cells in mitosis, a phenotype typically provoked by spindle toxins. The screening procedure is briefly summarized here. RPEMYC^H2B-GFP cells engineered to express a Histone 2B-EGFP fusion protein were passaged as batches of 96-well plates, 18-24 hours before exposure to the chemical compounds of the present disclosure at concentrations from 1 nM to 30 μM. At 24, 48 or 72 hours after initiation of treatment, cells were analyzed for either an arrest in mitosis or a change in DNA content by GE IN-Cell Analyzer 2000. As set forth in Table 2 below, a value of greater than or equal to 1 nM and less than or equal to 1.0 μM is marked “A”; a value greater than 1.00 μM and less than or equal to 10.0 μM is marked “B”; a value greater than 10.0 μM and less than or equal to 30.0 μM is marked “C”; and a value greater than 30.0 μM is marked “D.”

[1] = read-out: Min. Effective conc. for Polyploidy (≥5%)

SMILES	minimal effective concentration [1] [µM]	minimal effective concentration (read-out: Mitotic Arrest (≥5%)) [µM]	IC50 [µM]	Along with Cell Death	Min. Effective conc. for Polyploidy (≥5%)	Mitotic Arrest (≥5%)	Proliferative arrest (>50%)
COc1cc(Oc2cc(C)nc3ccccc23)cc(-n2cccn2)c1 [Compound 96, 4-(3-methoxy-5-(1H-pyrazol-1-yl)phenoxy)-2-methylquinoline]	0.001 to 1	0.001 to 1					
COc1cc(Oc2ccnc3ccccc23)cc(-c2nc(C)no2)c1 [Compound 13, 5-(3-methoxy-5-(quinolin-4-yloxy)phenyl)-3-methyl-oxadiazole]	0.001 to 1	0.001 to 1	0.001 to 1				
COc1cc(Oc2ccnc3ccc(Br)cc23)cc([N+](=O)[O-])c1 [Compound 93, 4-(3-methoxy-5-nitrophenoxy)-6-bromoquinone]	0.001 to 1	0.001 to 1					
COc1cc(NC(C)=O)cc(Oc2ccnc3ccc(C(F)(F)F)cc23)c1 [Compound 55, N-(3-Methoxy-5-((6-(trifluoromethyl)quinolin-4-yl)oxy)phenyl)acetamide]	0.001 to 1	0.001 to 1	0.001 to 1				
CCOc1cc(Oc2ccnc3cc(OC)c(C(N)=O)cc23)cc(-n2cccn2)c1 [Compound 59, 4-(3-ethoxy-5-(1H-pyrazol-1-yl)phenoxy)-7-methoxyquinoline-6-carboxamide]	0.001 to 1	0.001 to 1	0.001 to 1				
COc1cc2nccc(Oc3cc(Cl)cc(-n4cccn4)c3)c2cc1C(N)=O [Compound 5, 4-(3-chloro-5-(1H-pyrazol-1-yl)phenoxy)-7-methoxyquinoline-6-carboxamide]	1 to 10	1 to 10					
COc1cc(OC)cc(Oc2ccnc3cc(OC)c(Br)cc23)c1 [Compound 89, 6-bromo-4-(3,5-dimethoxyphenoxy)-7-methoxyquinone]	0.001 to 1	0.001 to 1					
COc1cc(Oc2ncnc3cc(OC)c(OC)cc23)cc(-n2cnc(C)c2)c1 [Compound 75, 4-(3-Methoxy-5(4-methyl-H-imidazol-1-yl)phenoxy)-6,7-dimethoxyquinazoline]	0.001 to 1	0.001 to 1	0.001 to 1				
COC(=O)c1cc(OC)cc(Oc2ncnc3cc(OC)c(OC)cc23)c1 [Example 24, methyl 3-((6,7-dimethoxyquinazolin-4-yl)oxy)-5-methoxybenzoate]				C (a value greater than 10.0 μM and less than or equal to 30.0 μM)	C (a value greater than 10.0 μM and less than or equal to 30.0 μM)	C (a value greater than 10.0 μM and less than or equal to 30.0 μM)	C (a value greater than 10.0 μM and less than or equal to 30.0 μM)
COc1cc(NC(C)=O)cc(Oc2ncnc3ccn(C)c23)c1 [Compound 56, N-(3-methoxy-5-((5-methyl-5H-pyrrolo[3,2-d]pyrimidin-4-yl)oxy)phenyl) acetamide]	10 to 30	1 to 10	10 to 30				
COc1cc(Oc2ccnc3ccc(C(F)(F)F)cc23)cc(-n2cccn2)c1 [Compound 49, 4-(3-Methoxy-5-(1H-pyrazol-1-yl)phenoxy)-6-(trifluoromethyl) quinoline]	0.001 to 1	0.001 to 1	0.001 to 1				
CNC(=O)c1cc(OC)cc(Oc2ccnc3ccc(Br)cc23)c1 [Compound 72, 3-((6-Bromoquinolin-4-yl)oxy)-5-methoxy-N-methylbenzamide]	0.001 to 1	0.001 to 1	0.001 to 1				
COc1cc(NC(C)=O)cc(Oc2ccnc3cc(OC)c(C(N)=O)cc23)c1 [Compound 31, 4-(3-acetamido-5-methoxyphenoxy)-7-methoxyquinoline-6-carboxamide]	0.001 to 1	0.001 to 1	0.001 to 1				
COc1cc(Oc2ncnc3cc(OC)c(OC)cc23)cc(-n2cccn2)c1 [Compound 74, 4-(3-methoxy-5-(1H-pyrazol-1-yl)phenoxy)-6,7-dimethoxyquinazoline]	10 to 30	10 to 30	10 to 30				
